“Also recorded” adds a separate entry of the source.
Legend:
HOIP RBR C885S = biological target: T1, HOIP RBR C885S (Homo sapiens, UniProt Q96EP0, C885S); experiment: Protein LC-MS labeling of active-site mutant; type: binding; conditions: 200 μM compound (100-fold excess), 2 μM protein, 4 h
T1 construct: 697-1072; made in house; host or cells: E. coli BL21-GOLD(DE3)
Description: negative control and compound solutions data points were acquired after 0.5, 4, and 24 h […]
Protocol as described above, using the HOIP RBR C885S mutant (155 µM stock solution in 50 mM HEPES, 150 mM NaCl, 1 mM DTT, pH 7.5) and 50 mM HEPES, 150 mM NaCl, pH 7.5 buffer.
The stock solution at 4 µM (25 µL per sample, final concentration 2 µM, 87 µg/mL), was mixed with buffer (24.5 µL) and compound (5) (0.5 µL of 2, and 20 mM stock solutions in DMSO, giving a final concentration of 20 and 200 µM respectively, and 1% DMSO). Data points were acquired after 0.5 and 4 h incubation.
The HOIP RBR domain wild type was diluted with 50 mM HEPES, 150 mM NaCl, pH 7.5 buffer to afford a new stock solution at 2.02 µM, which was aliquoted into 10 × 297 µL. […]
thawed individually and analyzed by protein mass spectrometry as described above. The total ion counts (TICs) detected for unlabelled HOIP and labelled HOIP-(5) conjugate within a peak elution range of 10 seconds were used to calculate the ratio of labelled HOIP RBR over total HOIP RBR content for each sample. The averaged data from 3 independent experiments were analyzed according to a two-step model of reversible ligand binding followed by irreversible covalent modification (Supplementary Figure S2A),11 fitted to a single exponential equation (equation 1, Supplementary Figure S2B) using GraFit (v.7). […]

[1] = biological target: T2, 3 × FLAG-tagged HOIP RBR in HEK293T cells (Homo sapiens, UniProt Q96EP0); experiment: ABPP in-gel fluorescence, competition with TCO probe (15); type: cell-based; conditions: 30 μM 7 h pretreatment, then 3 μM (15) 2 h; vs (11i), (17), DMSO
T2 construct: expressed in transfected cells; host or cells: HEK293T, transient, modified pcDNA3.1(+)
Text: PCR purification kit QIAquick Qiagen 28104
Maxiprep Kit Endofree plasmid Maxi Kit Qiagen 12362
E coli Competent DH5α New England C2987H
E coli Competent BL21 GOLD(DE3) Agilent 230132
LDS loading buffer NuPAGE 4× LDS loading buffer Invitrogen NP0008
Trypsin Cell Culture TE Trypsin Gibco R-001-100
Trypsin Sequencing Grade Modified Trypsin Promega V511A
Chymotrypsin Sequencing Grade Chymotrypsin Promega V106A
Cy5-Tetrazine Fluorescent probe for IEDDA click chemistry DC Biosciences CCR-1189-1 Tz-PEG4-Biotin Tetrazine linked biotin Jena Bioscience CLK-027-25
NeutrAvidin beads High capacity NeutrAvidin agarose resin Thermo 29204 […]
5.1 Activity-based protein profiling – In-gel fluorescence […]
HEK293T cells were cultured and transfected with 3×FLAG-tagged HOIP RBR wild type or C885A mutant, or mock as described in section 4.8 above. […] The cells were harvested and lysed (50 mM Tris-HCl, pH 7.5, 1.5 mM MgCl2, 150 mM NaCl, 5% glycerol, 0.8% v/v IGEPAL-CA630, 25 mM NaF, 1 mM Na3VO4, complete protease inhibitor), and the protein concentration was determined by the BCA assay as described in section […]
50 µL. The lysates were incubated at 23 °C, 600 rpm (Eppendorph Thermomixer) for 1 h, then analyzed by SDS PAGE (section 4.5) and in-gel fluorescence (LI-COR) at 700 nm, and by Western Blot as described in section 4.6 (Figure 6E and Supplementary Figures S15, S16). […]

T1 sequence (Q96EP0 697-1072 C885S): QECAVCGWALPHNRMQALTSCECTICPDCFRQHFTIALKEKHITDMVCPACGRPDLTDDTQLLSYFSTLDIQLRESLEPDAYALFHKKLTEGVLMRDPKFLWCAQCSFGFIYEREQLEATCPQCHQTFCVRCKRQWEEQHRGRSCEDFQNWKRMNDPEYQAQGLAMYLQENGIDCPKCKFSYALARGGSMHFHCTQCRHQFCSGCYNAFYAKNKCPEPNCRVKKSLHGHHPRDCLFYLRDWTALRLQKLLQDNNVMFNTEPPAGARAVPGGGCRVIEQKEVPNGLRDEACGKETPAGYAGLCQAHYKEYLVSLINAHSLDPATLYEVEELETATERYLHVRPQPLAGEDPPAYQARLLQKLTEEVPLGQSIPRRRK
T2 sequence (Q96EP0 697-1072): as the sequence (Q96EP0 697-1072 C885S) above, with S189C counted along it

For `COC(=O)/C=C/CNC(=O)c1cc2c([nH]c1=O)CCC2` [Compound 5], the “labeling of HOIP RBR C885S” value (HOIP RBR C885S) was “did not result in protein labeling; also recorded: not labeled”.

With `COC(=O)/C=C/CNC(=O)c1cc2c([nH]c1=O)CCCC2` [Compound 11a] the “in-gel fluorescence of HOIP RBR labeled by probe (15)” value [1] was “significant reduction of the in-gel fluorescence of HOIP RBR”.

From PMC6383986, “Fragment-Based Covalent Ligand Screening Enables Rapid Discovery of Inhibitors for the RBR E3 Ubiquitin Ligase HOIP” (Journal of the American Chemical Society, 2019)
